Data as given in patent US20140249135A1, “PIM KINASE INHIBITORS AND METHODS OF THEIR USE” (NOVARTIS AG, priority 2007, published 2014).
“And” between values parts separate entries of the source, which are not always exact repeats. Equal entries are not always repeated.

How the values were obtained:
[1] = biological target: T1, human full length PKCE enzyme (Homo sapiens, UniProt Q02156); test: In vitro PKCE assay; assay type: biochemical; details: 10 nM enzyme, 40 uM peptide substrate, 20 uM ATP, KinaseGlo Plus readout; read-out: PKCε IC50
T1 construct: human full length PKCE enzyme purchased from InVitrogen; purchased InVitrogen
T1 sequence (Q02156 1-737): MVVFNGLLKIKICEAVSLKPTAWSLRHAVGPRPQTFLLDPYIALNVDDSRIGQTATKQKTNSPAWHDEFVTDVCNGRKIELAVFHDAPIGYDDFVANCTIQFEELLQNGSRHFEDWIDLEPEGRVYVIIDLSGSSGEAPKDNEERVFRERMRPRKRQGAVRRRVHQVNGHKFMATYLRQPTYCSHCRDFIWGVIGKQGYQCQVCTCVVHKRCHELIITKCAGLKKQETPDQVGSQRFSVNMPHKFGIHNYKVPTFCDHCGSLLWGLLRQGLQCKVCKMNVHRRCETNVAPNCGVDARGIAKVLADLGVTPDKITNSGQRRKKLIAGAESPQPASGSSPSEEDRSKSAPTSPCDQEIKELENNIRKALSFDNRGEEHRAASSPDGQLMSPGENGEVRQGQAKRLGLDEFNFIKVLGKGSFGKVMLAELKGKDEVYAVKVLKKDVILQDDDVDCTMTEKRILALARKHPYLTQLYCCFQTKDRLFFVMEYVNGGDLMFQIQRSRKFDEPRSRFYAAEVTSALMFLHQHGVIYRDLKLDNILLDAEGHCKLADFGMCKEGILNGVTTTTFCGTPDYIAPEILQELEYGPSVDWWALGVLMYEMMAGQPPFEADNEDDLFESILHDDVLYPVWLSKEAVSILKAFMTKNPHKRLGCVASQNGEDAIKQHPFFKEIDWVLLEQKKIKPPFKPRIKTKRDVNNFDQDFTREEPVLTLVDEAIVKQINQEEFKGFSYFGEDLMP

Pim3 kinase = Pim3 kinase (Homo sapiens, UniProt Q86V86); test: Pim3 ATP depletion assay; assay type: biochemical; details: read-out: IC50 (μM) PIM3
Pim1 kinase = Pim1 kinase (Homo sapiens, UniProt P11309); test: Pim1 ATP depletion assay; assay type: biochemical; details: Pim1 ATP depletion assay; read-out: IC50 (μM) PIM1;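 note: Luciferase-luciferin luminescence readout of residual ATP after PIM1 transfers phosphate to a peptide substrate, 40 µM ATP added, reaction run to roughly half ATP consumption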
Sequence of Pim1 kinase (P11309 whole entry): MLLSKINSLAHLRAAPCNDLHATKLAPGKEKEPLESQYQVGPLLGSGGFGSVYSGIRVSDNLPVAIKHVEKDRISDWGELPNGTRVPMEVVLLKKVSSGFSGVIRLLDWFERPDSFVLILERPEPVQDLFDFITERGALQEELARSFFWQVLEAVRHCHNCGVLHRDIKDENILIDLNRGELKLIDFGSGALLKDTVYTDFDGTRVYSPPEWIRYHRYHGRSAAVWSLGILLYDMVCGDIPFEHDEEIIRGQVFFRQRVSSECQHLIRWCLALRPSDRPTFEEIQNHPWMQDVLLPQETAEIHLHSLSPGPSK

Pim2 kinase = Pim2 kinase (Homo sapiens, UniProt Q9P1W9); test: Pim2 ATP depletion assay; assay type: biochemical; details: read-out: IC50 (μM) PIM2;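 note: Luciferase-based luminescent readout of ATP remaining after PIM2 phosphorylates a BAD peptide, final 5 nM enzyme, 4 µM ATP, 10 µM peptide, 2.5% DMSO, run to roughly half ATP consumption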
Sequence of Pim2 kinase (Q9P1W9 whole entry): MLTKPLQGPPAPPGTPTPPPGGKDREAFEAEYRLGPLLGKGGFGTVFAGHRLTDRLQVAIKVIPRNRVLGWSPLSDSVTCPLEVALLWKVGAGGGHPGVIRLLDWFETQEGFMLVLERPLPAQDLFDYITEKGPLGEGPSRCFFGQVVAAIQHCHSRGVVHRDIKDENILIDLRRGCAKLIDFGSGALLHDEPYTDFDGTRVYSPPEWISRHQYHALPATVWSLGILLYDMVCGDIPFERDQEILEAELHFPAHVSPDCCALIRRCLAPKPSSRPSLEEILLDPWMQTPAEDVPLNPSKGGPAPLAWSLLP

PC3 cells = test: Cell proliferation assay (CellTiter-Glo), PC3; assay type: cell-based; details: Homo sapiens, PC-3
Description: HEL 92.1.7 cells (ATTC No. TIB-180, an erythroleukemia line derived from malignant peripheral blood), MV4-11 cells (ATCC No. CRL-9591, a human acute monocytic leukemia line) and PC3 cells (ATCC No. CRL-1435, a human prostatic adenocarcinoma line) were cultured in RPMI1640 supplemented with 10% FBS, sodium pyruvate and antibiotics. Cells were plated in the same medium at a density of 1000 cells per well into 96 well tissue culture plates, with outside wells vacant, on the day of assay.
Test compounds supplied in DMSO were diluted into DMSO at 500 times the desired final concentrations before dilution into culture media to 2 times final concentrations. Equal volumes of 2× compounds were added to the cells in 96 well plates and incubated at 37° C. for 3 days.
After 3 days plates were equilibrated to room temperature and equal volume of CellTiter-Glow Reagent (Promega) was added to the culture wells. The plates were agitated briefly and luminescent signal was measured with luminometer. The percent inhibition of the signal seen in cells treated with DMSO alone vs. cells treated with control compound was calculated and used to determine EC50 values (i.e., the concentration of a test compound that is required to obtain 50% of the maximum effect in the cells) for tested compounds, as shown in Example 763.

KDR kinase = KDR kinase (Homo sapiens, UniProt P35968); test: KDR AlphaScreen assay; details: KDR IC50 (μM)
Sequence of KDR kinase (P35968 20-1356): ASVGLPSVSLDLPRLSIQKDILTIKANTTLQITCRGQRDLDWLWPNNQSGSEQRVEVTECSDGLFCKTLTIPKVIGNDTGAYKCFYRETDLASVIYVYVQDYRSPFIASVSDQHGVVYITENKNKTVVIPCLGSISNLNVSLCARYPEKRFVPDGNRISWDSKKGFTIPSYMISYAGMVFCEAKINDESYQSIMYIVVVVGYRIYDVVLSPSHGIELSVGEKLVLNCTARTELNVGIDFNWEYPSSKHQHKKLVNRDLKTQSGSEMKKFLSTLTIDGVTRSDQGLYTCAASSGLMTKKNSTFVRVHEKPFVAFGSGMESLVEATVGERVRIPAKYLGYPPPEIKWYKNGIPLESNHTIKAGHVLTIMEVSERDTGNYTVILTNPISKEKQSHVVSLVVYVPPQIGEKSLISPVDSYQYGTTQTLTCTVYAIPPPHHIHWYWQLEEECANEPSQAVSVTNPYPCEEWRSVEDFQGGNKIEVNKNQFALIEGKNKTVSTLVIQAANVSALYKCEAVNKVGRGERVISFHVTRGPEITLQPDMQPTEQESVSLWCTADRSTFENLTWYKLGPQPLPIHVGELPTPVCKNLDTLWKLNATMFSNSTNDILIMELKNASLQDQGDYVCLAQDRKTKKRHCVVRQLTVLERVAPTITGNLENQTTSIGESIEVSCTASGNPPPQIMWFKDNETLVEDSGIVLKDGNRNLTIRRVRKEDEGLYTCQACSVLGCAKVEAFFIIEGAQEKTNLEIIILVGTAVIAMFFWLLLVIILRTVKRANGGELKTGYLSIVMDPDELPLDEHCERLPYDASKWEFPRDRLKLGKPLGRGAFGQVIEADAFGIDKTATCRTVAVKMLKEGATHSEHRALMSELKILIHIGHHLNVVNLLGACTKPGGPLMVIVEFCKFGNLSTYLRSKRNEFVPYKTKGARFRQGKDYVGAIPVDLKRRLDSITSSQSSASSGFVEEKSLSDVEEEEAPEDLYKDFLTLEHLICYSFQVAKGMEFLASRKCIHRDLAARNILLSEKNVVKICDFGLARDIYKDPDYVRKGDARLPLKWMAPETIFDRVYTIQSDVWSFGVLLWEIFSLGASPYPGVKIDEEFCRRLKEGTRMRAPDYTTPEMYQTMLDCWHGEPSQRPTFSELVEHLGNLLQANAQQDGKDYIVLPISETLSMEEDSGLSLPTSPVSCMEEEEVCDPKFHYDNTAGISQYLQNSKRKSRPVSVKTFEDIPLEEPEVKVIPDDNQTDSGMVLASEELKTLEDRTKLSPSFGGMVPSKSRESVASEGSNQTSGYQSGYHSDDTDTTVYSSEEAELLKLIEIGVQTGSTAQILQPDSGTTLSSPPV

IC50 [1]	IC50 (Pim3 kinase) [µM]	IC50 (Pim1 kinase) [µM]	IC50 (Pim2 kinase) [µM]	EC50 (PC3 cells) [µM]	IC50 (KDR kinase)	Structure (SMILES)
< 1000 nM	1 to 10	< 1	1 to 10	< 1	–	Nc1nccnc1C(=O)Nc1ccncc1N1CCCCC1 [Example 122, 3-amino-N-(3-piperidin-1-yl-pyridin-4-yl)pyrazine-2-carbox-amide]
< 1000 nM	< 1	< 1	< 1	< 1	1 to 10 µM	Nc1ncc(Br)nc1C(=O)Nc1ccccc1N1CCC(N)CC1 [Example 205, 3-amino-N-[2-(4-aminopiperidin-1-yl)phenyl]-6-bromopyrazine-2-carboxamide]
< 1000 nM	1 to 10	< 1	10 to 25	1 to 5	> 25 µM	Cc1cnc(N)c(C(=O)Nc2ccccc2N2CCC(N)CC2)n1 [Example 378, 3-amino-N-[2-(4-amino-piperidin-1-yl)phenyl]-6-methylpyrazine-2-carboxamide]
< 1000 nM	< 1	< 1	–	< 1	< 1 µM	Nc1ncc(-c2ccccc2F)nc1C(=O)Nc1cnccc1N1CCNCC1 [Example 363, 3-amino-6-(2-fluoro-phenyl)-pyrazine-2-carboxylic acid (4-piperazin-1-yl-pyridin-3-yl)-amide]
< 1000 nM	< 1	< 1	< 1	1 to 5	< 1 µM	Nc1ncc(-c2ccccc2)nc1C(=O)Nc1ccccc1N1CCCC(N)C1 (centres unmarked) [Example 372, 3-amino-6-phenyl-pyrazine-2-carboxylic acid [2-(3-amino-piperidin-1-yl)-phenyl]-amide]
< 1000 nM	< 1	< 1	1 to 10	1 to 5	1 to 10 µM	Nc1ncc(-c2ccccc2)nc1C(=O)Nc1ccccc1N1CCNCC1 [Example 382, 3-amino-6-phenyl-pyrazine-2-carboxylic acid (2-piperazin-1-yl-phenyl)-amide]
< 1000 nM	< 1	< 1	< 1	> 10	> 25 µM	Nc1nccnc1C(=O)Nc1ccccc1N1CCCC(N)C1 (centres unmarked) [Example 195, 3-amino-N-[2-(3-aminopiperidin-1-yl)phenyl]pyrazine-2-carboxamide]
< 1000 nM	< 1	< 1	–	< 1	< 1 µM	COc1ccc(-c2cnc(N)c(C(=O)Nc3cnccc3N3CCC(N)CC3)n2)cc1 [Example 367, 3-amino-6-(4-methoxy-phenyl)-pyrazine-2-carboxylic acid (4-amino-3,4,5,6-tetra-hydro-2H-[1,4′]bipyridinyl-3′-yl)-amide]
< 1000 nM	< 1	< 1	–	< 1	< 1 µM and 1 to 10 µM	Nc1ncc(-c2ccccc2)nc1C(=O)Nc1cnccc1N1CCC(N)CC1 [Example 364, 3-amino-6-phenyl-pyrazine-2-carboxylic acid (4-amino-3,4,5,6-tetrahydro-2H-[1,4′]bi-pyridinyl-3′-yl)-amide]
< 1000 nM	< 1	< 1	10 to 25	> 10	> 25 µM	COc1ccc(N2CCC(N)CC2)c(NC(=O)c2nccnc2N)c1 [Example 222, 3-amino-N-[2-(4-aminopiperidin-1-yl)-5-methoxyphenyl]pyrazine-2-carboxamide]
< 1000 nM	< 1	< 1	1 to 10	> 10	< 1 µM	Nc1ncc(-c2ccccc2Oc2ccccc2)nc1C(=O)Nc1cnccc1N1CCC(N)CC1 [Example 365, 3-amino-6-(2-phenoxy-phenyl)-pyrazine-2-carboxylic acid (4-amino-3,4,5,6-tetra-hydro-2H-[1,4′]bipyridinyl-3′-yl)-amide]
10000 to 25000 nM and < 1000 nM	1 to 10	< 1	> 25	5 to 10	> 25 µM and 10 to 25 µM	Cc1ccc(N2CCC(N)CC2)c(NC(=O)c2nccnc2N)c1 [Example 217, 3-amino-N-[2-(4-aminopiperidin-1-yl)-5-methylphenyl]pyrazine-2-carboxamide]
< 1000 nM	< 1	< 1	1 to 10	< 1	–	Nc1nccnc1C(=O)Nc1cnccc1N1CCC(N)CC1 [Example 193, 3-amino-N-[4-(4-aminopiperidin-1-yl)pyridin-3-yl]pyrazine-2-carboxamide]
< 1000 nM	1 to 10	< 1	1 to 10	1 to 5	1 to 10 µM	Nc1ncc(-c2cccc3ccccc23)nc1C(=O)Nc1ccccc1N1CCNCC1 [Example 389, 3-amino-6-naphthalen-1-yl-pyrazine-2-carboxylic acid (2-piperazin-1-yl-phenyl)-amide]
< 1000 nM	< 1	< 1	< 1	5 to 10	10 to 25 µM	Nc1nccnc1C(=O)Nc1ccccc1N1CCC[C@H](N)C1 [Example 201, 3-amino-N-{2-[(3S)-3-amino-piperidin-1-yl]phenyl}pyrazine-2-carboxamide]
< 1000 nM	< 1	< 1	1 to 10	5 to 10	1 to 10 µM	CN(C)C1CCN(c2ccncc2NC(=O)c2nccnc2N)CC1 [Example 126, 3-amino-N-{4-[4-(dimethyl-amino)piperidin-1-yl]pyridin-3-yl}pyrazine-2-carboxamide]
< 1000 nM	< 1	< 1	< 1	> 10	> 25 µM	Cc1cnc(N)c(C(=O)Nc2ccccc2N2CCCC(N)C2)n1 (centres unmarked) [Example 376, 3-amino-6-methyl-pyrazine-2-carboxylic acid [2-(3-amino-piperidin-1-yl)-phenyl]-amide]
< 1000 nM	< 1	< 1	1 to 10	1 to 5	10 to 25 µM	Nc1nccnc1C(=O)Nc1cc(Cl)ccc1N1CCC(N)CC1 [Example 214, 3-amino-N-[2-(4-aminopiperidin-1-yl)-5-chlorophenyl]pyrazine-2-carboxamide]
< 1000 nM	< 1	< 1	< 1	5 to 10	< 1 µM	COc1ccc(-c2cnc(N)c(C(=O)Nc3cnccc3N3CCCC(N)C3)n2)cc1 (centres unmarked) [Example 370, 3-amino-6-(4-methoxy-phenyl)-pyrazine-2-carboxylic acid (3-amino-3,4,5,6-tetra-hydro-2H-[1,4′]bipyridinyl-3′-yl)-amide]
< 1000 nM	< 1	< 1	–	< 1	< 1 µM	Nc1ncc(-c2ccccc2F)nc1C(=O)Nc1cnccc1N1CCC(N)CC1 [Example 368, 3-amino-6-(2-fluoro-phenyl)-pyrazine-2-carboxylic acid (4-amino-3,4,5,6-tetrahydro-2H-[1,4′]bipyridinyl-3′-yl)-amide]
1000 to 10000 nM	< 1	< 1	1 to 10	1 to 5	–	Nc1nc(N)c(C(=O)Nc2ccncc2N2CCCCC2)nc1Cl [Example 120, 3,5-diamino-6-chloro-N-(3-piperidin-1-ylpyridin-4-yl)-pyrazine-2-carboxamide]
